Reference: PubChem BioAssay (NCI)
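Dose response: 5 concentrations. Exposure: 48 h. Format: 96-well plates. Endpoint: linear interpolation; highest concentration if not reached. GI50 is the concentration that inhibits growth by half. TGI: total growth inhibition.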

Columns and labels:
Assay in all cases: NCI tumour cell line growth inhibition, 48 h; in the data active = GI50 below about 0.43 µM; inactive = the rest
DU-145 prostate = tested on: DU-145 prostate
SK-MEL-5 melanoma = tested on: SK-MEL-5 melanoma
SF-539 CNS = tested on: SF-539 CNS
A498 renal = tested on: A498 renal
OVCAR-3 ovarian = tested on: OVCAR-3 ovarian
A549 NSCLC = tested on: A549 NSCLC
K-562 leukemia = tested on: K-562 leukemia
CAKI-1 renal = tested on: CAKI-1 renal
SK-MEL-28 melanoma = tested on: SK-MEL-28 melanoma
BT-549 breast = tested on: BT-549 breast
HCC-2998 colon = tested on: HCC-2998 colon
NCI-H226 lung = tested on: NCI-H226 lung
OVCAR-5 ovarian = tested on: OVCAR-5 ovarian
MDA-MB-231 breast = tested on: MDA-MB-231 breast
UACC-257 melanoma = tested on: UACC-257 melanoma
SNB-75 CNS = tested on: SNB-75 CNS
SNB-19 CNS = tested on: SNB-19 CNS
M14 melanoma = tested on: M14 melanoma
HCT-116 colon = tested on: HCT-116 colon
KM12 colon = tested on: KM12 colon
SK-MEL-2 melanoma = tested on: SK-MEL-2 melanoma
HOP-92 NSCLC = tested on: HOP-92 NSCLC
CCRF-CEM leukemia = tested on: CCRF-CEM leukemia
HL-60(TB) leukemia = tested on: HL-60(TB) leukemia
HOP-62 NSCLC = tested on: HOP-62 NSCLC
HCT-15 colon = tested on: HCT-15 colon
HT29 colon = tested on: HT29 colon
NCI/ADR-RES ovarian = tested on: NCI/ADR-RES ovarian
SW-620 colon = tested on: SW-620 colon
COLO 205 colon = tested on: COLO 205 colon
SR leukemia = tested on: SR leukemia
SK-OV-3 ovarian = tested on: SK-OV-3 ovarian
SF-295 CNS = tested on: SF-295 CNS
MALME-3M melanoma = tested on: MALME-3M melanoma
PC-3 prostate = tested on: PC-3 prostate
LOX IMVI melanoma = tested on: LOX IMVI melanoma
OVCAR-4 ovarian = tested on: OVCAR-4 ovarian
UACC-62 melanoma = tested on: UACC-62 melanoma
T-47D breast = tested on: T-47D breast
SN12C renal = tested on: SN12C renal
OVCAR-8 ovarian = tested on: OVCAR-8 ovarian
MDA-MB-435 = tested on: MDA-MB-435
786-0 renal = tested on: 786-0 renal
NCI-H522 lung = tested on: NCI-H522 lung
TK-10 renal = tested on: TK-10 renal
U251 CNS = tested on: U251 CNS
ACHN renal = tested on: ACHN renal
IGROV1 ovarian = tested on: IGROV1 ovarian
MOLT-4 leukemia = tested on: MOLT-4 leukemia
HS 578T breast = tested on: HS 578T breast
UO-31 renal = tested on: UO-31 renal
NCI-H23 lung = tested on: NCI-H23 lung
RXF 393 renal = tested on: RXF 393 renal
RPMI-8226 leukemia = tested on: RPMI-8226 leukemia
EKVX NSCLC = tested on: EKVX NSCLC
NCI-H460 lung = tested on: NCI-H460 lung
SF-268 CNS = tested on: SF-268 CNS
MCF7 breast = tested on: MCF7 breast

CCN1C/C(=C\c2cc(OC)c(OC)cc2OC)C(=O)/C(=C/c2cc(OC)c(OC)cc2OC)C1
10.4 µM: TGI (HOP-62 NSCLC)
8.99 µM: TGI (SR leukemia)
4.89 µM: TGI (SF-295 CNS)
> 100 µM: TGI (A549 NSCLC) | TGI (K-562 leukemia) | TGI (OVCAR-5 ovarian) | TGI (CCRF-CEM leukemia) | TGI (NCI/ADR-RES ovarian) | TGI (SK-OV-3 ovarian) | TGI (PC-3 prostate) | TGI (OVCAR-4 ovarian) | TGI (T-47D breast) | TGI (OVCAR-8 ovarian)
81.6 µM: TGI (MOLT-4 leukemia)
3.84 µM: TGI (HCT-116 colon)
3.59 µM: TGI (MALME-3M melanoma)
3.04 µM: TGI (KM12 colon)
4.3 µM: TGI (MDA-MB-435)
23.7 µM: TGI (SNB-19 CNS)
5.6 µM: TGI (SK-MEL-28 melanoma)
9.14 µM: TGI (SN12C renal)
6.82 µM: TGI (CAKI-1 renal)
inactive: GI50 (DU-145 prostate) 1.85 µM | GI50 (SK-MEL-5 melanoma) 1.59 µM | GI50 (SF-539 CNS) 2.61 µM | GI50 (A498 renal) 2.56 µM | GI50 (OVCAR-3 ovarian) 2.29 µM | GI50 (A549 NSCLC) 3.67 µM | GI50 (K-562 leukemia) 3.58 µM | GI50 (CAKI-1 renal) 2.98 µM | GI50 (SK-MEL-28 melanoma) 2.48 µM | GI50 (BT-549 breast) 2.87 µM | GI50 (HCC-2998 colon) 1.74 µM | GI50 (NCI-H226 lung) 2.59 µM | GI50 (OVCAR-5 ovarian) 3.2 µM | GI50 (MDA-MB-231 breast) 3.66 µM | GI50 (UACC-257 melanoma) 4.32 µM | GI50 (SNB-75 CNS) 5.86 µM | GI50 (SNB-19 CNS) 4.23 µM | GI50 (M14 melanoma) 2.3 µM | GI50 (HCT-116 colon) 1.84 µM | GI50 (KM12 colon) 1.57 µM | GI50 (SK-MEL-2 melanoma) 2.29 µM | GI50 (HOP-92 NSCLC) 2.46 µM | GI50 (CCRF-CEM leukemia) 2.96 µM | GI50 (HL-60(TB) leukemia) 2.84 µM | GI50 (HOP-62 NSCLC) 3.45 µM | GI50 (HCT-15 colon) 2.96 µM | GI50 (HT29 colon) 2.63 µM | GI50 (NCI/ADR-RES ovarian) 3.12 µM | GI50 (SW-620 colon) 3.2 µM | GI50 (COLO 205 colon) 2.31 µM | GI50 (SR leukemia) 3.16 µM | GI50 (SK-OV-3 ovarian) 3.69 µM | GI50 (SF-295 CNS) 2.3 µM | GI50 (MALME-3M melanoma) 1.94 µM | GI50 (PC-3 prostate) 4.25 µM | GI50 (LOX IMVI melanoma) 2.25 µM | GI50 (OVCAR-4 ovarian) 3.73 µM | GI50 (UACC-62 melanoma) 2.13 µM | GI50 (T-47D breast) 2.96 µM | GI50 (SN12C renal) 3.11 µM | GI50 (OVCAR-8 ovarian) 3.43 µM | GI50 (MDA-MB-435) 2.07 µM | GI50 (786-0 renal) 2.87 µM | GI50 (NCI-H522 lung) 3.05 µM | GI50 (TK-10 renal) 3.88 µM | GI50 (U251 CNS) 3.08 µM | GI50 (ACHN renal) 2.08 µM | GI50 (IGROV1 ovarian) 3.06 µM | GI50 (MOLT-4 leukemia) 4.1 µM | GI50 (HS 578T breast) 3.34 µM | GI50 (UO-31 renal) 1.8 µM | GI50 (NCI-H23 lung) 3.43 µM | GI50 (RXF 393 renal) 2.32 µM | GI50 (RPMI-8226 leukemia) 2.35 µM | GI50 (EKVX NSCLC) 3.5 µM
7.81 µM: TGI (A498 renal)
7.38 µM: TGI (RXF 393 renal)
5.43 µM: TGI (COLO 205 colon)
17.8 µM: TGI (HOP-92 NSCLC)
28 µM: TGI (UACC-257 melanoma)
3.9 µM: TGI (UO-31 renal)
79.5 µM: TGI (HS 578T breast)
12 µM: TGI (MDA-MB-231 breast) | TGI (NCI-H522 lung)
7.33 µM: TGI (SF-539 CNS)
5.55 µM: TGI (LOX IMVI melanoma)
3.33 µM: TGI (HCC-2998 colon)
5.17 µM: TGI (OVCAR-3 ovarian)
11.2 µM: TGI (IGROV1 ovarian)
8.09 µM: TGI (786-0 renal)
5.59 µM: TGI (NCI-H226 lung)
4.28 µM: TGI (UACC-62 melanoma)
5.37 µM: TGI (M14 melanoma)
30.6 µM: TGI (EKVX NSCLC)
78 µM: TGI (SNB-75 CNS)
14.3 µM: TGI (U251 CNS)
7.87 µM: TGI (SK-MEL-2 melanoma)
8.26 µM: TGI (HL-60(TB) leukemia)
5.69 µM: TGI (HT29 colon)
11.3 µM: TGI (HCT-15 colon) | TGI (TK-10 renal)
6.78 µM: TGI (RPMI-8226 leukemia)
13.3 µM: TGI (SW-620 colon)
4.12 µM: TGI (DU-145 prostate)
3.53 µM: TGI (SK-MEL-5 melanoma)
4.45 µM: TGI (ACHN renal)
15.4 µM: TGI (NCI-H23 lung)
8.72 µM: TGI (BT-549 breast)

Cc1ccc(S(=O)(=O)NC(=O)NCCc2cnc[nH]2)cc1
> 100 µM: TGI (DU-145 prostate) | TGI (SK-MEL-5 melanoma) | TGI (SF-539 CNS) | TGI (A498 renal) | TGI (OVCAR-3 ovarian) | TGI (A549 NSCLC) | TGI (K-562 leukemia) | TGI (CAKI-1 renal) | TGI (SK-MEL-28 melanoma) | TGI (HCC-2998 colon) | TGI (NCI-H226 lung) | TGI (OVCAR-5 ovarian) | TGI (MDA-MB-231 breast) | TGI (SNB-75 CNS) | TGI (SNB-19 CNS) | TGI (M14 melanoma) | TGI (HCT-116 colon) | TGI (KM12 colon) | TGI (SK-MEL-2 melanoma) | TGI (HOP-92 NSCLC) | TGI (HL-60(TB) leukemia) | TGI (HOP-62 NSCLC) | TGI (HCT-15 colon) | TGI (HT29 colon) | TGI (NCI/ADR-RES ovarian) | TGI (SW-620 colon) | TGI (COLO 205 colon) | TGI (SR leukemia) | TGI (SK-OV-3 ovarian) | TGI (SF-295 CNS) | TGI (MALME-3M melanoma) | TGI (NCI-H460 lung) | TGI (SF-268 CNS) | TGI (PC-3 prostate) | TGI (LOX IMVI melanoma) | TGI (MCF7 breast) | TGI (OVCAR-4 ovarian) | TGI (UACC-62 melanoma) | TGI (OVCAR-8 ovarian) | TGI (MDA-MB-435) | TGI (786-0 renal) | TGI (NCI-H522 lung) | TGI (TK-10 renal) | TGI (U251 CNS) | TGI (ACHN renal) | TGI (IGROV1 ovarian) | TGI (MOLT-4 leukemia) | TGI (HS 578T breast) | TGI (UO-31 renal) | TGI (NCI-H23 lung) | TGI (RXF 393 renal) | TGI (RPMI-8226 leukemia) | TGI (EKVX NSCLC)
